Values joined by “and” are separate entries in the source; they are usually repeats but may differ in a detail not shown here. Equal values may be shown once.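 Exposure lasted 48 hours, with cells grown in 96-well plates and compounds tested at five concentrations. Abbreviation: GI50, concentration required for 50% inhibition of growth. At the TGI there is no net growth.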
Columns and labels:
Assay in all cases: growth of human tumour cells (NCI), 48 h; in the data active means GI50 below about 0.43 µM; inactive means the rest
[1] = system: EKVX NSCLC
[2] = system: COLO 205 colon
[3] = system: UACC-257 melanoma
[4] = system: OVCAR-4 ovarian
[5] = system: RXF 393 renal
[6] = system: A498 renal
[7] = system: NCI-H522 lung
[8] = system: RPMI-8226 leukemia
[9] = system: ACHN renal
[10] = system: SR leukemia

Nc1ncn([C@@H]2S[C@H](CO)[C@@H](O)[C@@H]2F)c(=O)n1
inactive: GI50 [1] 8.97 µM | GI50 [2] 3.57 µM | GI50 [3] > 71.4 µM | GI50 [4] > 100 µM | GI50 [5] 7.31 µM | GI50 [7] > 100 µM | GI50 [8] 22.4 µM | GI50 [10] 0.648 µM
> 100 µM: TGI [1] | TGI [2] | TGI [3] | TGI [4] | TGI [5] | TGI [7] | TGI [8] | TGI [10]
active: GI50 [6] 0.267 µM | GI50 [9] 0.297 µM

C[C@@H](NC(C#N)c1ccco1)c1ccccc1 (stereo not given in full)
> 100 µM: TGI [1] | TGI [3] | TGI [5] | TGI [6] | TGI [8] | TGI [9] | TGI [10]

CC1CC(C)CC(C)C(O)/C(C#N)=C/C=C/CC(C2CCCC2C(=O)O)OC(=O)CC(O)C(C)C1 (stereo not given)
0.0736 µM and 0.0813 µM: TGI [10]
0.0482 µM and 0.0186 µM: TGI [6]
0.148 µM and 0.181 µM: TGI [9]
0.27 µM and 0.412 µM: TGI [2]
0.51 µM and 1.89 µM: TGI [4]
active: GI50 [1] 0.0518 µM | GI50 [2] 0.0565 µM | GI50 [3] 0.0359 µM | GI50 [4] 0.126 µM | GI50 [5] 0.00363 µM | GI50 [6] 0.0152 µM | GI50 [7] 0.00266 µM | GI50 [8] 0.00486 µM | GI50 [9] 0.0326 µM | GI50 [10] 0.0176 µM
0.384 µM and 0.465 µM: TGI [1]
0.0137 µM and < 0.0119 µM: TGI [7]
0.0315 µM and < 0.145 µM: TGI [8]
0.17 µM and 0.0491 µM: TGI [3]
0.0304 µM and 0.0273 µM: TGI [5]

c1ccc(-c2nc(-c3ccccn3)nc(-c3ccccn3)n2)nc1
inactive: GI50 [1] 17 µM | GI50 [2] 45.7 µM | GI50 [3] 39.9 µM | GI50 [4] 18.6 µM | GI50 [5] > 100 µM | GI50 [6] 86.9 µM | GI50 [7] 21.6 µM | GI50 [8] 18.3 µM | GI50 [9] 22.1 µM | GI50 [10] 37.9 µM
81.8 µM: TGI [7]
> 100 µM: TGI [1] | TGI [2] | TGI [3] | TGI [4] | TGI [5] | TGI [6] | TGI [8] | TGI [9] | TGI [10]

From PubChem BioAssay (NCI)
